Test results: ChEMBL document CHEMBL1130757, “Synthetic arabinofuranosyl oligosaccharides as mycobacterial arabinosyltransferase substrates” (1998)

Columns and labels:
Format in all cases: functional
[1] = system: Mycolicibacterium smegmatis; test: Tested for recognition of mycobacterial arabinosyl transferase incubated with 14C1 labeled decaprenol arabinofuranosyl phosphate in the presence of membrane extracts from Mycobacterium smegmatis in experiment 1 (%incorporation = 13.8)
[2] = system: Mycolicibacterium smegmatis; test: Tested for recognition of mycobacterial arabinosyl transferase incubated with 14C1 labeled decaprenol arabinofuranosyl phosphate in the presence of membrane extracts from Mycobacterium smegmatis in experiment 2 (%incorporation = 15.8)
[3] = system: Mycolicibacterium smegmatis; test: Tested for recognition of mycobacterial arabinosyl transferase incubated with 14C1 labeled decaprenol arabinofuranosyl phosphate in the presence of membrane extracts from Mycobacterium smegmatis in experiment 3 (%incorporation = 12.4)
[4] = system: Mycolicibacterium smegmatis; test: Average value of incorporation for recognition of mycobacterial arabinosyl transferase in experiments 1, 2 and 3 (%incorporation = 14)
[5] = system: Mycolicibacterium smegmatis; test: Tested for recognition of mycobacterial arabinosyl transferase incubated with 14C1 labeled decaprenol arabinofuranosyl phosphate in the presence of membrane extracts from Mycobacterium smegmatis in experiment 2 (%incorporation = 22.5)
[6] = system: Mycolicibacterium smegmatis; test: Tested for recognition of mycobacterial arabinosyl transferase incubated with 14C1 labeled decaprenol arabinofuranosyl phosphate in the presence of membrane extracts from Mycobacterium smegmatis in experiment 3 (%incorporation = 18.2)
[7] = system: Mycolicibacterium smegmatis; test: Average value of incorporation for recognition of mycobacterial arabinosyl transferase in experiments 1, 2 and 3 (%incorporation = 20.8)
[8] = system: Mycolicibacterium smegmatis; test: Tested for recognition of mycobacterial arabinosyl transferase incubated with 14C1 labeled decaprenol arabinofuranosyl phosphate in the presence of membrane extracts from Mycobacterium smegmatis in experiment 1 (%incorporation = 21.9)
[9] = system: Mycolicibacterium smegmatis; test: Tested for recognition of mycobacterial arabinosyl transferase incubated with 14C1 labeled decaprenol arabinofuranosyl phosphate in the presence of membrane extracts from Mycobacterium smegmatis in experiment 1 (%incorporation = 16.4)
[10] = system: Mycolicibacterium smegmatis; test: Average value of incorporation for recognition of mycobacterial arabinosyl transferase in experiments 1 and 2 (%incorporation = 16.1)
[11] = system: Mycolicibacterium smegmatis; test: Tested for recognition of mycobacterial arabinosyl transferase incubated with 14C1 labeled decaprenol arabinofuranosyl phosphate in the presence of membrane extracts from Mycobacterium smegmatis in experiment 2 (%incorporation = 15.2)
[12] = system: Mycolicibacterium smegmatis; test: Average value of incorporation for recognition of mycobacterial arabinosyl transferase in experiments 1, 2 and 3 (%incorporation = 12.7)
[13] = system: Mycolicibacterium smegmatis; test: Tested for recognition of mycobacterial arabinosyl transferase incubated with 14C1 labeled decaprenol arabinofuranosyl phosphate in the presence of membrane extracts from Mycobacterium smegmatis in experiment 1 (%incorporation = 12.9)
[14] = system: Mycolicibacterium smegmatis; test: Tested for recognition of mycobacterial arabinosyl transferase incubated with 14C1 labeled decaprenol arabinofuranosyl phosphate in the presence of membrane extracts from Mycobacterium smegmatis in experiment 2 (%incorporation = 12.9)
[15] = system: Mycolicibacterium smegmatis; test: Average value of incorporation for recognition of mycobacterial arabinosyl transferase in experiments 1, 2 and 3 (%incorporation = 17.2)
[16] = system: Mycolicibacterium smegmatis; test: Tested for recognition of mycobacterial arabinosyl transferase incubated with 14C1 labeled decaprenol arabinofuranosyl phosphate in the presence of membrane extracts from Mycobacterium smegmatis in experiment 1 (%incorporation = 19.1)
[17] = system: Mycolicibacterium smegmatis; test: Tested for recognition of mycobacterial arabinosyl transferase incubated with 14C1 labeled decaprenol arabinofuranosyl phosphate in the presence of membrane extracts from Mycobacterium smegmatis in experiment 3 (%incorporation = 16.4)
[18] = system: Mycolicibacterium smegmatis; test: Tested for recognition of mycobacterial arabinosyl transferase incubated with 14C1 labeled decaprenol arabinofuranosyl phosphate in the presence of membrane extracts from Mycobacterium smegmatis in experiment 2 (%incorporation = 16.1)

Structure (SMILES): CO[C@H]1O[C@H](CO[C@H]2O[C@H](CO)[C@@H](O[C@H]3O[C@H](CO)[C@@H](O)[C@@H]3O)[C@@H]2O)[C@@H](O)[C@@H]1O
- Incorporation [1]: 5513 c.p.m.
- Incorporation [2]: 6326 c.p.m.
- Incorporation [3]: 4960 c.p.m.
- Average [4]: 5600 c.p.m.

Structure (SMILES): CO[C@H]1O[C@H](CO[C@H]2O[C@H](CO[C@H]3O[C@H](CO)[C@@H](O)[C@@H]3O)[C@@H](O)[C@@H]2O)[C@@H](O)[C@@H]1O
- Incorporation [5]: 9011 c.p.m.
- Incorporation [6]: 7271 c.p.m.
- Average [7]: 8338 c.p.m.
- Incorporation [8]: 8732 c.p.m.

Structure (SMILES): CO[C@H]1O[C@H](CO[C@H]2O[C@H](CO[C@H]3O[C@H](CO)[C@@H](O)[C@@H]3O)[C@@H](O[C@H]3O[C@H](CO)[C@@H](O)[C@@H]3O)[C@@H]2O)[C@@H](O)[C@@H]1O
- Incorporation [9]: 6540 c.p.m.
- Average [10]: 6433 c.p.m.
- Incorporation [11]: 6092 c.p.m.

Structure (SMILES): CO[C@H]1O[C@H](CO[C@H]2O[C@H](CO)[C@@H](O)[C@@H]2O)[C@@H](O)[C@@H]1O
- Average [12]: 5095 c.p.m.
- Incorporation [13]: 5148 c.p.m.
- Incorporation [14]: 5148 c.p.m.
- Incorporation [3]: 4990 c.p.m.

Structure (SMILES): CO[C@H]1O[C@H](CO)[C@@H](O[C@H]2O[C@H](CO)[C@@H](O)[C@@H]2O)[C@@H]1O
- Average [15]: 6876 c.p.m.
- Incorporation [16]: 7632 c.p.m.
- Incorporation [17]: 6563 c.p.m.
- Incorporation [18]: 6432 c.p.m.
